# Results published in US12629390B2, “Stabilized amorphous calcium carbonate for treatment of neurological, muscular and infertility diseases or conditions” (AMORPHICAL LTD., priority 2016, dated 2026).
# How the values were obtained:
# [1] = system: mdx cell line; assay: myotube formation, CK activity and contraction in mdx cell line; format: cell-based, mice; details: final Ca2+ 2 mM in Fusion Medium
# Description: Cells from the Mdx cell line were seeded in a Gelatin coated 12 wells culture plate, 3×10^4 cells/well containing 1 mL of Proliferation Medium. Two days later (˜66% confluence), the medium was changed to Fusion Medium which was changed twice a week. The various calcium preparations were separately added to the Fusion Medium according to the treatment described in Table 3. Cultures were enriched with the various calcium preparations, at Ca^2+ concentration of 1 mM. Since the medium already contained 1 mM of calcium ions, then the final concentration of Ca2+ was of 2 mM.
# The effects of the tested calcium preparations on cell proliferation, fusion to form myotubes and muscle contraction were monitored by daily phase contrast microscopic observation. At predetermined days, cultures were fixed in methanol for 20 minutes and then stained with Giemsa in order to evaluate the number of myotubes formed with time in cultures.
# At predetermined days, cells were collected from culture wells (using a rubber policeman) and kept in 1 mL PBS (without Ca^2+) at −70° C. until analyzed. For CK measurement cell samples were thawed and physically lysed using a sonicator, to release the CK from muscle myotubes. CK concentration was determined using Creatine Kinase Activity Assay Kit (CK-NAC REAGENT SET, CURTISS, CHEM-INDEX INC, Hialeah, FL, USA).
# [2] = system: MBA-13 cells; assay: Alizarin red staining of MBA13 stem cells differentiating to osteoblasts; format: cell-based; details: 10 days in culture
# Description: Two days following thawing, MBA-13 cells (received from Prof. Dov Zipori, Weizmann Institute of Science) were re-suspended in recombinant trypsin solution and seeded on a 96 wells plate, (Day “0”) in a concentration of 1×10^4 cells/well using MSC Nutristem® XF basal medium (Biological Industries, cat #05-200-1A) supplemented with Mesenchymal stem cells (MSC) supplement mix medium (Biological Industries cat #05-201-06) in a ratio of 50 ml:300 μl. […] Row G in the plate was treated with MSCgo medium (total 1.488 mM calcium). Row H of the plate was treated with MSC NutriStem® XF nutrient basal medium+supplement mix (total 1.488 mM calcium). On day 4, medium was exchanged with fresh preparations of ACC. […] Once the cells were fixated, two types of staining reagents were used to stain extracellular calcium or bone deposition in order to estimate osteoblasts functionality: (i) Alizarin red (Sigma A55333) and (ii) Alkaline Phosphatase (DAKO BCIP/NBT substrate system […]) as following: Alizarin red staining procedure-pH was adjusted to 4.2. Cells were washed twice with PBS and fixed with cold methanol for 5 minutes and then washed again with PBS. […] Following staining incubation, the samples were washed with water 2-3 times to remove unspecific staining.
# [3] = system: mice embryos; assay: in vitro embryo development in Quinn's Advantage cleavage media; format: cell-based
# Description: CBA male mice were bred with BL C57 female mice. The mice were kept on a 12 hours photoperiod schedule with unlimited water and food supply. About 6 to 8 weeks after receiving offspring, each female mouse was injected IP with 5IU of pregnant mare serum gonadotropin (PMSG).
# After 48 hours each female mouse was injected IP with 5IU human chorionic gonadotropin (hCG). Male mice proven to be fertile were then put together with the superovulated females. The next morning the female mice were examined for the presence of copulatory plugs. Females that had copulatory plugs were euthanized after 24 hours (approximately 36 hours post-coitus) and embryos at 2 cell stage were retrieved from the oviducts as following: the oviducts were dissected in Quinn's Advantage cleavage media (SAGE, Origio, Denmark) and the embryos were transferred to 20 μL drops with Quinn's Advantage cleavage media (SAGE, Origio, Denmark) overlaid with mineral oil and cultured at 37.0° C. under 5% CO2 and atmospheric oxygen. The collected embryos continued to grow, i.e. in-vitro culture (IVC), until blastocyst/hatching stage. To test the effect of amorphous calcium carbonate, the Quinn's Advantage cleavage media (“cleavage media” hereinafter) was supplemented with different additives, i.e. amorphous calcium carbonate stabilized by polyphosphate (ACC-PP), crystalline calcium carbonate (CCC), polyphosphate (PP), phosphoserine (PS) or sodium carbonate ([…]). All supplements were added as a freshly prepared suspension; the preparation of the ACC supplements were performed under aseptic conditions. Untreated cleavage media (without addition of any additive) was used as a control (identified as Cont Q). The embryos were evaluated every day by microscope observation for a detection of the following stages: 2 cells, compactions stage, blastocysts formation and hatching stage. The fraction (in percent) of the embryos reached each stage was calculated (the number of 2 cells embryos was set as 100%).
# [4] = Example 9 Test A, 1.7 mM in cleavage media
# [5] = Example 9 Test B, 1.7 mM CaCl2 or ACC-PP in cleavage media
# [6] = Example 10, 1.7 mM CaCl2 or ACC-PP in cleavage media
# [7] = Example 11, 1.7 mM in cleavage media
# [8] = Example 12, mouse 1, embryos grown separately, 1.7 mM in cleavage media
# [9] = Example 12, mouse 2, embryos grown separately, 1.7 mM in cleavage media
# [10] = Example 12, mouse 3, embryos grown separately, 1.7 mM in cleavage media
# [11] = Example 12, mouse 4, embryos grown separately, 1.7 mM in cleavage media
# [12] = Example 16, pooled embryos, 1.7 mM in cleavage media
smiles,measurement,setting,value
"[Ca+2].[Cl-].[Cl-] [CaCl2, calcium chloride]","muscle contractions observed, day after seeding",[1],≥ 10 days
same,Alizarin Red staining signal,"[2]; additional 1 mM calcium in MSCgo rapid osteogenic medium, gelatin coating",weak signal
same,large calcium deposition plaques,[2]; additional 1 mM calcium,not observed
same,Blast/d3: number of embryos,[3]; [4],16
same,Blast/d3: portion of the initial number of embryos,[3]; [4],64%
same,Comp/d2: portion of the initial number of embryos,[3]; [4],64%
same,comp/d2: number of embryos,[3]; [4],16
same,Blast/d3: number of embryos,[3]; [5],20
same,Blast/d3: portion of the initial number of embryos,[3]; [5],74%
same,Comp/d2: portion of the initial number of embryos,[3]; [5],70%
same,Hatch/d4: number of embryos,[3]; [5],11
same,Hatch/d4: portion of the initial number of embryos,[3]; [5],40.7%
same,comp/d2: number of embryos,[3]; [5],20
same,Blast/d3: number of embryos,[3]; [6],8
same,Blast/d3: portion of the initial number of embryos,[3]; [6],80%
same,Comp/d2: portion of the initial number of embryos,[3]; [6],30%
same,Hatch/d4: number of embryos,[3]; [6],3
same,Hatch/d4: portion of the initial number of embryos,[3]; [6],30%
same,comp/d2: number of embryos,[3]; [6],3
same,Blast/d3: number of embryos,[3]; [7],24
same,Blast/d3: portion of the initial number of embryos,[3]; [7],80%
same,Comp/d2: portion of the initial number of embryos,[3]; [7],53.3%
same,Hatch/d4: number of embryos,[3]; [7],13
same,Hatch/d4: portion of the initial number of embryos,[3]; [7],43.3%
same,comp/d2: number of embryos,[3]; [7],16
same,2Cell/d1: number of embryos,[3]; [8],3
same,8Cell/d2: number of embryos,[3]; [8],2
same,Blast/d3: number of embryos,[3]; [8],1
same,Blast/d3: portion of the initial number of embryos,[3]; [8],8.3%
same,Hatch/d4: number of embryos,[3]; [8],0 (0)
same,Hatch/d4: portion of the initial number of embryos,[3]; [8],0 (0) %
same,comp/d2: number of embryos,[3]; [8],1
same,irreg/d1: number of embryos,[3]; [8],9
same,2Cell/d1: number of embryos,[3]; [9],3
same,8Cell/d2: number of embryos,[3]; [9],0
same,Blast/d3: number of embryos,[3]; [9],2
same,Blast/d3: portion of the initial number of embryos,[3]; [9],22.2%
same,Hatch/d4: number of embryos,[3]; [9],0 (0)
same,Hatch/d4: portion of the initial number of embryos,[3]; [9],0 (0) %
same,comp/d2: number of embryos,[3]; [9],3
same,irreg/d1: number of embryos,[3]; [9],6
same,2Cell/d1: number of embryos,[3]; [10],7
same,8Cell/d2: number of embryos,[3]; [10],0
same,Blast/d3: number of embryos,[3]; [10],5
same,Blast/d3: portion of the initial number of embryos,[3]; [10],50%
same,Hatch/d4: number of embryos,[3]; [10],3
same,Hatch/d4: portion of the initial number of embryos,[3]; [10],30%
same,comp/d2: number of embryos,[3]; [10],6
same,irreg/d1: number of embryos,[3]; [10],3
same,2Cell/d1: number of embryos,[3]; [11],14
same,8Cell/d2: number of embryos,[3]; [11],4
same,Blast/d3: number of embryos,[3]; [11],12
same,Blast/d3: portion of the initial number of embryos,[3]; [11],66.7%
same,Hatch/d4: number of embryos,[3]; [11],7
same,Hatch/d4: portion of the initial number of embryos,[3]; [11],41.2%
same,comp/d2: number of embryos,[3]; [11],10
same,irreg/d1: number of embryos,[3]; [11],4
same,effect on embryonic development (percentages of blastocysts and hatched blastocysts),"[3]; Example 16, 1.7 mM in cleavage media",negative effect
same,8 cell/d2: number of embryos,[3]; [12],6
same,Blast/d3: number of embryos,[3]; [12],10
same,Blast/d3: portion of the initial number of embryos,[3]; [12],90.90%
same,Hatch/d4: number of embryos,[3]; [12],4
same,Hatch/d4: portion of the initial number of embryos,[3]; [12],36.36%
same,comp/d2: number of embryos,[3]; [12],5
